For one test, the target named is DGKζ (Homo sapiens (Human), UniProt Q13574). Briefly: Biochemical DGK IC50 assay, DGKζ ADP-Glo assay. To be noted: 0.5 nM enzyme, 140 μM ATP, 80 μM DAG; read-out: DGKζ ADP-Glo assay IC50. The essentials:
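Full-length human DGKζ, His-TEV tagged and purified from baculovirus-infected Sf9 cells, assayed by ADP-Glo with DAG/PS lipid micelle substrate prepared in 25 mM HEPES pH 7.0 with octyl glucoside. Final compound concentrations spanned 1.55–10000 nM or 23.3–150000 nM.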
(ADP-Glo turns the ADP formed in a reaction into a luminescent signal.)

For another test, the target named is DGKα (Homo sapiens (Human), UniProt P23743). Briefly: Biochemical DGK IC50 assay, DGKα ADP-Glo assay. Particulars: 7.5 nM enzyme, 140 μM ATP, 80 μM DAG. The essentials: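 ADP-Glo read-out with full-length DGKα on DAG/PS lipid micelle substrate in 25 mM HEPES pH 7.0, 0.5 mM EDTA, 160 mM octyl β-D-glucopyranoside. Compound final concentrations spanned 1.55˜10000 nM or 23.3˜150000 nM.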

These results are taken from patent publication US20240270751A1, “Pyrazolopyridinone Compounds” (BeiGene Ltd., priority 2021, published 2024).

By IC50 is commonly meant the concentration that gives 50% inhibition.

DGKα, sequence (P23743 whole entry): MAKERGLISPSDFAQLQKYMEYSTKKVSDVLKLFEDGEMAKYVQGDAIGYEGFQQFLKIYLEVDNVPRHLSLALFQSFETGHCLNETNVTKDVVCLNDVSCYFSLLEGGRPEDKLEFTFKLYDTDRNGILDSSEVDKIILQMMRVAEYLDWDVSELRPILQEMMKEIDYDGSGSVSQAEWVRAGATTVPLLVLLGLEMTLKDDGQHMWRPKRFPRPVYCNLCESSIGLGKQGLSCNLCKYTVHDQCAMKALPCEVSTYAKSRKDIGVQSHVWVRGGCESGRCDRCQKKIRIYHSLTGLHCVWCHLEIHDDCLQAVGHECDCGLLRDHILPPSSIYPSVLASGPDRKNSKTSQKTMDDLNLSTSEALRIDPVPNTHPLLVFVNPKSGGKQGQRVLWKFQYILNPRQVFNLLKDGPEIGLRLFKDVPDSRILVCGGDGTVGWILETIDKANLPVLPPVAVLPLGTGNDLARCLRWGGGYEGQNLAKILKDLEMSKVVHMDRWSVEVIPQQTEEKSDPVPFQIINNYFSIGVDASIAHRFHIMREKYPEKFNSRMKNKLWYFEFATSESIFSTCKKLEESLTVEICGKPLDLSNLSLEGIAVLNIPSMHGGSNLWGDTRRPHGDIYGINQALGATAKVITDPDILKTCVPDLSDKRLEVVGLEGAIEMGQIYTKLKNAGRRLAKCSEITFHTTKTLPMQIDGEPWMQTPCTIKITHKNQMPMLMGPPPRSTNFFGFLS
DGKζ, sequence (Q13574 other isoform, or with tags, fused parts or gaps): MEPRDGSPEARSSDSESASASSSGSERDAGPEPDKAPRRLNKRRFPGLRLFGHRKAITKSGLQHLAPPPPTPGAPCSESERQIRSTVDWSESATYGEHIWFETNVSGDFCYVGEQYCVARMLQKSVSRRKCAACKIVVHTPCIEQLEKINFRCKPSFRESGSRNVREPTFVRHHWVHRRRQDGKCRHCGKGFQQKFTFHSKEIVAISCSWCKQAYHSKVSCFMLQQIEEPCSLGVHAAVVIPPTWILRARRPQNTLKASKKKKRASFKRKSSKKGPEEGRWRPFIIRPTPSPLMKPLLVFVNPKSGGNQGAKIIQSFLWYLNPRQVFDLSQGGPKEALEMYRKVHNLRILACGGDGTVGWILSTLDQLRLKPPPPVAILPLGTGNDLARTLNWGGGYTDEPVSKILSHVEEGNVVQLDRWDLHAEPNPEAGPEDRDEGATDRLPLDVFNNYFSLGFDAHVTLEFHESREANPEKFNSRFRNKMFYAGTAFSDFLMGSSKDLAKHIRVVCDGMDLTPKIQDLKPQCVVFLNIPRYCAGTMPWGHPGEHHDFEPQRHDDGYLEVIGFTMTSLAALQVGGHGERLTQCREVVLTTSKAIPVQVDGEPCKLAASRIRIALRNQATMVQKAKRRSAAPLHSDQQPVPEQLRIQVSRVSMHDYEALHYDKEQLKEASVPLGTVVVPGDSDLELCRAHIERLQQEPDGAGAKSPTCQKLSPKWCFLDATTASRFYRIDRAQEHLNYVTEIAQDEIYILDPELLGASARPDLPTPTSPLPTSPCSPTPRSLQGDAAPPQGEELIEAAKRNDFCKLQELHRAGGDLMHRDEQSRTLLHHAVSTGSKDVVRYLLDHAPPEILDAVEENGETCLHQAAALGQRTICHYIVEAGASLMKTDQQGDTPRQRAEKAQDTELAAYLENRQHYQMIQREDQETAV

For `CC[C@H]1CN(C(C)c2nc3cccc(C(F)(F)F)c3n2CC)[C@H](CC)CN1c1cc(=O)n(C)c2cn(CC#N)nc12` (single isomer, unassigned) [Compound A230b], the values for the IC50 at DGKζ and on DGKα were 494 nM and 6200 nM, respectively.

`CC[C@H]1CN(C(C)c2ccc(OC3CCOC3)cc2)[C@H](CC)CN1c1cc(=O)n(C)c2cn(CC#N)nc12` (stereo partly drawn) [Compound A375, 2-(7-((2S,5R)-2,5-diethyl-4-(1-(4-((tetrahydrofuran-3-yl)oxy)phenyl)ethyl)piperazin-1-yl)-4-methyl-5-oxo-4,5-dihydro-2H-pyrazolo[4,3-b]pyridin-2-yl)acetonitrile]: the values for the IC50 on DGKζ and on DGKα were 944 nM and 200 nM, respectively.

`CC[C@H]1CN(C(C)c2ccc3c(c2)NCCO3)[C@H](CC)CN1c1cc(=O)n(C)c2cn(CC#N)nc12` (some centres unmarked) [Compound A138]: the IC50 on DGKζ is 480 nM; against DGKα, 1280 nM.

For the compound `CC[C@H]1CN(C(C)c2ccc(F)cn2)[C@H](CC)CN1c1cc(=O)n(C)c2cn(CC#N)nc12` (some centres unmarked) [Compound A74], the IC50 turned out to be 830 nM on DGKζ and 3.8 nM against DGKα.

Consider `COCc1cc(F)ccc1C(C)N1C[C@H](C)N(c2cc(=O)n(C)c3cn(CC#N)nc23)C[C@H]1C` (single isomer, unassigned) [Compound A29b], for which the figures for the IC50 at DGKζ and at DGKα were 57 nM and 4060 nM, respectively.

Regarding `CC[C@H]1CN(C(C)c2ccc(OC(C)C)nc2)[C@H](CC)CN1c1cc(=O)n(C)c2cn(CC#N)nc12` (some centres unmarked) [Compound A81], the IC50 was found to be 60 nM on DGKζ and 461 nM against DGKα.

In the case of `CC[C@H]1CN(C(C)c2c(F)cncc2F)[C@H](CC)CN1c1cc(=O)n(C)c2cn(CC#N)nc12` (some centres unmarked) [Compound A87], the IC50 on DGKζ came out at 211 nM; on DGKα it was 114 nM.

As to `CC[C@H]1CN(C(C)c2ccc(C)nc2)[C@H](CC)CN1c1cc(=O)n(C)c2cn(CC#N)nc12` (single isomer, unassigned) [Compound A349b], the IC50 on DGKζ was 4240 nM; against DGKα, 1580 nM.

In the case of `CC(c1ccc2nccnc2c1)N1C[C@H](C)N(c2cc(=O)n(C)c3c[nH]nc23)C[C@H]1C` (stereo partly drawn) [Compound A1, 7-((2S,5R)-2,5-dimethyl-4-(1-(quinoxalin-6-yl)ethyl)piperazin-1-yl)-4-methyl-2,4-dihydro-5H-pyrazolo[4,3-b]pyridin-5-one], the figures for the IC50 at DGKζ and at DGKα were greater than 150000 nM and 1800 nM, respectively.

As for `COCC[C@H]1CN(C(C)c2ccc3nccnc3c2)[C@H](C)CN1c1cc(=O)n(C)c2cn(CC#N)nc12` (stereo partly drawn) [Compound A164, 2-(7-((2S,5R)-2-(2-methoxyethyl)-5-methyl-4-(1-(quinoxalin-6-yl)ethyl)piperazin-1-yl)-4-methyl-5-oxo-4,5-dihydro-2H-pyrazolo[4,3-b]pyridin-2-yl)acetonitrile], the IC50 at DGKζ turned out to be 72 nM; against DGKα, 8970 nM.

As for `CC[C@H]1CN(C(C)c2ccc(C(F)(F)F)cc2F)[C@H](CC)CN1c1cc(=O)n(C)c2c[nH]nc12` (single isomer, unassigned) [Compound A231b], the IC50 on DGKζ was greater than 10000 nM; at DGKα it was 303 nM.

As for `CC[C@H]1CN(C(C)c2cc3cnccc3cn2)[C@H](CC)CN1c1cc(=O)n(C)c2cn(CC#N)nc12` (single isomer, unassigned) [Compound A368a], the figures for the IC50 on DGKζ and against DGKα were 6650 nM and 4900 nM, respectively.

For the compound `CC[C@H]1CN(C(C)c2ccc3c(c2)OCCO3)[C@H](CC)CN1c1cc(=O)n(C)c2cn(CC#N)nc12` (stereo partly drawn) [Compound A126, 2-(7-((2S,5R)-4-(1-(2,3-dihydrobenzo[b][1,4]dioxin-6-yl)ethyl)-2,5-diethylpiperazin-1-yl)-4-methyl-5-oxo-4,5-dihydro-2H-pyrazolo[4,3-b]pyridin-2-yl)acetonitrile], the IC50 worked out at 7.2 nM on DGKζ and 449 nM on DGKα.

For `CC[C@H]1CN(C(c2ccc(F)cc2)c2ccc(F)cc2OC)[C@H](CC)CN1c1cc(=O)n(C)c2cn(CC#N)nc12` (some centres unmarked) [Compound A53], the IC50 came out at 7.8 nM on DGKζ and 1200 nM against DGKα.

Regarding `CCC(c1ccc(C(C)(C)C#N)cc1)N1C[C@H](CC)N(c2cc(=O)n(C)c3cn(CC#N)nc23)C[C@H]1CC` (stereo partly drawn) [Compound A339, 2-(4-(1-((2R,5S)-4-(2-(cyanomethyl)-4-methyl-5-oxo-4,5-dihydro-2H-pyrazolo[4,3-b]pyridin-7-yl)-2,5-diethylpiperazin-1-yl)propyl)phenyl)-2-methylpropanenitrile], the IC50 was 361 nM at DGKζ and 5360 nM on DGKα.

With `CC[C@H]1CN(C(C)c2c(C)cnn2CC)[C@H](CC)CN1c1cc(=O)n(C)c2cn(CC#N)nc12` (single isomer, unassigned) [Compound A227a], the IC50 at DGKζ and on DGKα was greater than 10000 nM each time.

`CC[C@H]1CN(C(C)c2ccc(C(N)=O)cc2)[C@H](CC)CN1c1cc(=O)n(C)c2cn(CC#N)nc12` (single isomer, unassigned) [Compound A120a]: the IC50 at DGKζ stood at 2930 nM; against DGKα, 176 nM.

For the compound `C[C@H](c1ccc2nccnc2c1)N1CC2CCC1CN2c1cc(=O)n(C)c2cn(CC#N)nc12` (some centres unmarked) [Compound A125b], the IC50 is 5270 nM at DGKζ and greater than 10000 nM against DGKα.

In the case of `CC[C@H]1CN(C(C)c2ccc(C(F)(F)F)cc2F)[C@H](CC)CN1c1cc(=O)n(C)c2cn(CC#N)nc12` (stereo partly drawn) [Compound A73, 2-(7-((2S,5R)-2,5-diethyl-4-(1-(2-fluoro-4-(trifluoromethyl)phenyl)ethyl)piperazin-1-yl)-4-methyl-5-oxo-4,5-dihydro-2H-pyrazolo[4,3-b]pyridin-2-yl)acetonitrile], the IC50 at DGKζ and at DGKα was 630 nM throughout.

For `CC[C@H]1CN(C(C)c2ccc(F)cc2C(F)(F)F)[C@H](CC)CN1c1cc(=O)[nH]c2cn(CC#N)nc12` (stereo partly drawn) [Compound A265, 2-(7-((2S,5R)-2,5-diethyl-4-(1-(4-fluoro-2-(trifluoromethyl)phenyl)ethyl)piperazin-1-yl)-5-oxo-4,5-dihydro-2H-pyrazolo[4,3-b]pyridin-2-yl)acetonitrile], the IC50 was 736 nM at DGKζ and greater than 10000 nM on DGKα.

`CC[C@@H]1CN(c2cc(=O)n(C)c3cn(CC)nc23)[C@@H](C)CN1C(C)c1ccc2nccnc2c1` (single isomer, unassigned) [Compound A221a]: the IC50 at DGKζ amounted to 216 nM; against DGKα, 1090 nM.

As for `CC[C@@H]1CN(c2cc(=O)[nH]c3c(C)n(CC#N)nc23)[C@@H](C)CN1C(C)c1ccc2nccnc2c1` (some centres unmarked) [Compound A264], the IC50 at DGKζ was 215 nM; on DGKα, greater than 10000 nM.

Consider `CC[C@H]1CN(C(C)c2ccc(C(F)F)cc2)[C@H](CC)CN1c1cc(=O)n(C)c2cn(CC#N)nc12` (some centres unmarked) [Compound A128], for which the IC50 at DGKζ stood at 112 nM; at DGKα, 31 nM.

`CC[C@H]1CN(C(C)c2ccc(F)cn2)[C@H](CC)CN1c1cc(=O)n(C)c2cn(CC#N)nc12` (single isomer, unassigned) [Compound A74a]: the results for the IC50 at DGKζ and against DGKα were 224 nM and 2.2 nM, respectively.

Turning to `CC[C@H]1CN(C(C)c2ccc(C(F)(F)F)cc2F)[C@H](CC)CN1c1cc(=O)n(C)c2cn(CC#N)nc12` (single isomer, unassigned) [Compound A69a], the IC50 worked out at 25 nM at DGKζ and 130 nM against DGKα.

Turning to `CC#CCn1cc2c(n1)c(N1C[C@@H](CC)N(C(C)c3ccc(C(F)(F)F)cc3F)C[C@@H]1CC)cc(=O)n2C` (single isomer, unassigned) [Compound A334b], the IC50 is greater than 10000 nM on DGKζ and 893 nM against DGKα.

Regarding `CC[C@H]1CN(C(C)c2ccc(C(F)(F)F)nc2)[C@H](CC)CN1c1cc(=O)n(C)c2cn(CC#N)nc12` (single isomer, unassigned) [Compound A135a], the IC50 came to 97 nM on DGKζ and 398 nM against DGKα.

Regarding `CC[C@H]1CN(C(C)c2cc3ccccc3cn2)[C@H](CC)CN1c1cc(=O)n(C)c2cn(CC#N)nc12` (some centres unmarked) [Compound A58], the IC50 at DGKζ was found to be 2.8 nM; on DGKα, 7.3 nM.

For `CC[C@H]1CN(C(C)c2ccc(C(F)(F)F)c(OC)c2)[C@H](CC)CN1c1cc(=O)n(C)c2cn(CC#N)nc12` (some centres unmarked) [Compound A78], the IC50 was found to be 640 nM at DGKζ and 2410 nM on DGKα.

`CC(C1CCOCC1)N1C[C@H](C)N(c2cc(=O)n(C)c3cn(CC#N)nc23)C[C@H]1C` (some centres unmarked) [Compound A242]: the IC50 on DGKζ and on DGKα was greater than 10000 nM in each case.

In the case of `CC(c1ccc2nccnc2c1)N1C[C@H](CCO)N(c2cc(=O)n(C)c3cn(CC#N)nc23)C[C@H]1C` (stereo partly drawn) [Compound A145, 2-(7-((2S,5R)-2-(2-hydroxyethyl)-5-methyl-4-(1-(quinoxalin-6-yl)ethyl)piperazin-1-yl)-4-methyl-5-oxo-4,5-dihydro-2H-pyrazolo[4,3-b]pyridin-2-yl)acetonitrilecetonitrile], the IC50 is 55 nM at DGKζ and 20300 nM at DGKα.

Regarding `CCO[C@@H]1CN(c2cc(=O)n(C)c3cn(CC#N)nc23)CC[C@H]1Oc1cccc(C(F)(F)F)c1` [Compound A295, 2-(7-((3R,4R)-3-ethoxy-4-(3-(trifluoromethyl)phenoxy)piperidin-1-yl)-4-methyl-5-oxo-4,5-dihydro-2H-pyrazolo[4,3-b]pyridin-2-yl)acetonitrile], the IC50 was 563 nM at DGKζ and 5690 nM at DGKα.

As for `CC[C@H]1CN(C(C)c2ccc(C)c(C)c2)[C@H](CC)CN1c1cc(=O)n(C)c2cn(CC#N)nc12` (some centres unmarked) [Compound A384], the figures for the IC50 at DGKζ and on DGKα were 99 nM and 1750 nM, respectively.

As for `CC[C@H]1CN(C(C)c2ccc3nccnc3c2)[C@H](CC)CN1c1cc(=O)n(CC(F)F)c2cn(CC#N)nc12` (single isomer, unassigned) [Compound A139b], the values for the IC50 on DGKζ and at DGKα were 5740 nM and greater than 10000 nM, respectively.
